# ChEMBL document CHEMBL4311942, “Design of Trp-Rich Dodecapeptides with Broad-Spectrum Antimicrobial Potency and Membrane-Disruptive Mechanism” (J Med Chem, 2019)
# Where a SMILES comes first, the peptide text is derived from it.
# Assays:
# Staphylococcus aureus [1] = assay: Antibacterial activity against Staphylococcus aureus ATCC 25923 incubated for 18 to 24 hrs by broth microdilution method; format: functional
# Staphylococcus aureus [2] = assay: Antibacterial activity against Staphylococcus aureus ATCC 29213 incubated for 18 to 24 hrs by broth microdilution method; format: functional
# Salmonella typhimurium = assay: Antibacterial activity against Salmonella enterica serovar typhimurium C77-31 incubated for 18 to 24 hrs by broth microdilution method; format: functional, Salmonella enterica subsp. enterica serovar Typhimurium
# Escherichia coli [3] = assay: Antibacterial activity against Escherichia coli UB1005 incubated for 18 to 24 hrs by broth microdilution method; format: functional
# Escherichia coli [4] = assay: Antibacterial activity against Escherichia coli ATCC 25922 incubated for 18 to 24 hrs by broth microdilution method; format: functional
# [5] = system: Staphylococcus epidermidis; assay: Antibacterial activity against Staphylococcus epidermidis ATCC 12228 incubated for 18 to 24 hrs by broth microdilution method; format: functional
# Erythrocyte = assay: Haemolytic activity in human erythrocytes assessed as lowest concentration causing 5% hemolysis after 1 hr; format: ADME, cell-based
# [6] = Therapeutic index, ratio of MHC for human RBC to geometric mean of peptide MIC for Escherichia coli ATCC 25922; format: toxicity; conditions: pooled result: one value given for 6 cell lines, strains, targets or settings, read-out: TI
# [7] = Cytotoxicity against mouse RAW264.7 cells assessed as cell survival at <= 32 uM after 24 hrs by MTT assay relative to control; format: cell-based; conditions: RAW264.7 cells, up to 32 µM, read-out: Activity
# Escherichia coli [8] = assay: Antibacterial activity against Escherichia coli 20411 clinical isolate incubated for 18 to 24 hrs by broth microdilution method; format: functional
# Acinetobacter baumannii [9] = assay: Antibacterial activity against Acinetobacter baumannii AB1901 clinical isolate incubated for 18 to 24 hrs by broth microdilution method; format: functional
# Acinetobacter baumannii [10] = assay: Antibacterial activity against Acinetobacter baumannii AB1902 clinical isolate incubated for 18 to 24 hrs by broth microdilution method; format: functional
# Pseudomonas aeruginosa = assay: Antibacterial activity against Pseudomonas aeruginosa 25349 clinical isolate incubated for 18 to 24 hrs by broth microdilution method; format: functional
# Staphylococcus aureus [11] = assay: Antibacterial activity against Staphylococcus aureus 11011 incubated for 18 to 24 hrs by broth microdilution method; format: functional
# [12] = Cytotoxicity against mouse RAW264.7 cells assessed as cell survival at < 32 uM after 24 hrs by MTT assay; format: cell-based; conditions: read-out: Activity
Compound,MIC (Staphylococcus aureus [1]) [µM],MIC (Staphylococcus aureus [2]) [µM],MIC (Salmonella typhimurium) [µM],MIC (Escherichia coli [3]) [µM],MIC (Escherichia coli [4]) [µM],MIC [5] [µM],MHC (Erythrocyte) [µM],selectivity ratio [6],viability at 24 h [7] [%],MIC (Escherichia coli [8]) [µM],MIC (Acinetobacter baumannii [9]) [µM],MIC (Acinetobacter baumannii [10]) [µM],MIC (Pseudomonas aeruginosa) [µM],MIC (Staphylococcus aureus [11]) [µM],viability at 24 h [12] [%]
CC(C)C[C@H](NC(=O)[C@H](CCCNC(=N)N)NC(=O)[C@H](CC(C)C)NC(=O)[C@H](CCCNC(=N)N)NC(=O)[C@@H](NC(=O)[C@H](CCCCN)NC(=O)[C@H](CC(C)C)NC(=O)[C@H](CCCNC(=N)N)NC(=O)[C@H](CC(C)C)NC(=O)[C@H](CCCNC(=N)N)NC(=O)[C@@H](N)CC(C)C)[C@@H](C)O)C(=O)N[C@@H](CCCCN)C(N)=O (H-LRLRLKTRLRLK-NH2),32,32,16,4,4,64,> 128,16,≥ 70,–,–,–,–,–,–
CC(C)C[C@H](NC(=O)[C@H](CCCNC(=N)N)NC(=O)[C@H](CCCCN)NC(=O)[C@H](Cc1c[nH]c2ccccc12)NC(=O)[C@@H](NC(=O)[C@H](CCCCN)NC(=O)[C@H](CCCCN)NC(=O)[C@H](CCCNC(=N)N)NC(=O)[C@H](CC(C)C)NC(=O)[C@H](CCCNC(=N)N)NC(=O)[C@@H](N)CCCNC(=N)N)[C@@H](C)O)C(=O)N[C@@H](Cc1c[nH]c2ccccc12)C(N)=O (H-RRLRKKTWKRLW-NH2),> 128,64,64,32,16,64,> 128,4.49,≥ 70,–,–,–,–,–,–
CC(C)C[C@H](NC(=O)[C@H](CCCNC(=N)N)NC(=O)[C@H](Cc1c[nH]c2ccccc12)NC(=O)[C@H](CCCNC(=N)N)NC(=O)[C@@H](NC(=O)[C@H](CCCCN)NC(=O)[C@H](Cc1c[nH]c2ccccc12)NC(=O)[C@H](CCCNC(=N)N)NC(=O)[C@H](CC(C)C)NC(=O)[C@H](CCCNC(=N)N)NC(=O)[C@@H](N)CCCNC(=N)N)[C@@H](C)O)C(=O)N[C@@H](CCCCN)C(N)=O (H-RRLRWKTRWRLK-NH2),16,16,32,4,16,16,> 128,18,≥ 70,–,–,–,–,–,–
CC(C)C[C@H](NC(=O)[C@H](CCCNC(=N)N)NC(=O)[C@H](Cc1c[nH]c2ccccc12)NC(=O)[C@H](CCCNC(=N)N)NC(=O)[C@@H](NC(=O)[C@H](Cc1c[nH]c2ccccc12)NC(=O)[C@H](Cc1c[nH]c2ccccc12)NC(=O)[C@H](CCCNC(=N)N)NC(=O)[C@H](CC(C)C)NC(=O)[C@H](CCCNC(=N)N)NC(=O)[C@@H](N)CCCNC(=N)N)[C@@H](C)O)C(=O)N[C@@H](CCCCN)C(N)=O (H-RRLRWWTRWRLK-NH2),8,4,8,4,4,8,> 128,45.2,≥ 70,–,–,–,–,–,–
CC(C)C[C@H](NC(=O)[C@H](CCCNC(=N)N)NC(=O)[C@H](CCCCN)NC(=O)[C@H](Cc1c[nH]c2ccccc12)NC(=O)[C@@H](NC(=O)[C@H](CCCCN)NC(=O)[C@H](CCCCN)NC(=O)[C@H](Cc1c[nH]c2ccccc12)NC(=O)[C@H](CC(C)C)NC(=O)[C@H](CCCNC(=N)N)NC(=O)[C@@H](N)CCCNC(=N)N)[C@@H](C)O)C(=O)N[C@@H](Cc1c[nH]c2ccccc12)C(N)=O (H-RRLWKKTWKRLW-NH2),16,8,8,4,4,8,> 128,35.9,≥ 70,–,–,–,–,–,–
CC(C)C[C@H](NC(=O)[C@H](CCCNC(=N)N)NC(=O)[C@H](Cc1c[nH]c2ccccc12)NC(=O)[C@H](CCCNC(=N)N)NC(=O)[C@@H](NC(=O)[C@H](CCCNC(=N)N)NC(=O)[C@H](Cc1c[nH]c2ccccc12)NC(=O)[C@H](CCCNC(=N)N)NC(=O)[C@H](CC(C)C)NC(=O)[C@H](CCCNC(=N)N)NC(=O)[C@@H](N)Cc1c[nH]c2ccccc12)[C@@H](C)O)C(=O)N[C@@H](CCCNC(=N)N)C(N)=O (H-WRLRWRTRWRLR-NH2),2,2,4,4,4,2,> 128,90.5,–,2,4,4,16,2,> 90
C[C@@H](O)[C@H](NC(=O)[C@H](CCCNC(=N)N)NC(=O)[C@H](Cc1c[nH]c2ccccc12)NC(=O)[C@H](CCCNC(=N)N)NC(=O)[C@@H](NC(=O)[C@H](CCCNC(=N)N)NC(=O)[C@H](Cc1c[nH]c2ccccc12)NC(=O)[C@H](CCCNC(=N)N)NC(=O)[C@@H](NC(=O)[C@H](CCCNC(=N)N)NC(=O)[C@@H](N)Cc1c[nH]c2ccccc12)[C@@H](C)O)[C@@H](C)O)C(=O)N[C@@H](CCCNC(=N)N)C(N)=O (H-WRTRWRTRWRTR-NH2),8,4,4,4,4,8,> 128,50.8,–,2,32,32,> 64,4,> 90
CC(C)[C@H](NC(=O)[C@H](CCCNC(=N)N)NC(=O)[C@H](Cc1c[nH]c2ccccc12)NC(=O)[C@H](CCCNC(=N)N)NC(=O)[C@@H](NC(=O)[C@H](CCCCN)NC(=O)[C@H](Cc1c[nH]c2ccccc12)NC(=O)[C@H](CCCNC(=N)N)NC(=O)[C@@H](NC(=O)[C@H](CCCNC(=N)N)NC(=O)[C@@H](N)Cc1c[nH]c2ccccc12)C(C)C)[C@@H](C)O)C(=O)N[C@@H](CCCCN)C(N)=O (H-WRVRWKTRWRVK-NH2),4,2,4,2,4,4,> 128,80.8,–,4,8,8,32,4,> 90
CC(C)[C@H](NC(=O)[C@H](CCCNC(=N)N)NC(=O)[C@H](Cc1c[nH]c2ccccc12)NC(=O)[C@H](CCCNC(=N)N)NC(=O)[C@@H](NC(=O)[C@H](CCCCN)NC(=O)[C@H](Cc1c[nH]c2ccccc12)NC(=O)[C@H](CCCNC(=N)N)NC(=O)[C@@H](NC(=O)[C@H](CCCNC(=N)N)NC(=O)[C@@H](N)Cc1c[nH]c2ccccc12)C(C)C)C(C)C)C(=O)N[C@@H](CCCCN)C(N)=O (H-WRVRWKVRWRVK-NH2),2,1,2,2,4,2,> 128,128,–,1,2,4,4,2,> 90
CC(C)[C@H](NC(=O)[C@H](CCCNC(=N)N)NC(=O)[C@H](Cc1c[nH]c2ccccc12)NC(=O)[C@H](CCCNC(=N)N)NC(=O)[C@@H](NC(=O)[C@H](CCCNC(=N)N)NC(=O)[C@H](Cc1c[nH]c2ccccc12)NC(=O)[C@H](CCCNC(=N)N)NC(=O)[C@@H](NC(=O)[C@H](CCCNC(=N)N)NC(=O)[C@@H](N)Cc1c[nH]c2ccccc12)C(C)C)C(C)C)C(=O)N[C@@H](CCCNC(=N)N)C(N)=O (H-WRVRWRVRWRVR-NH2),2,1,4,2,4,2,> 128,114,–,2,2,2,4,1,> 90
